Experimental data: patent publication US20230242530A1, “8-(AZETIDIN-1-YL)-[1,2,4]TRIAZOLO[1,5-A]PYRIDINYL COMPOUNDS, COMPOSITIONS AND METHODS OF USE THEREOF” (Genentech, Inc., priority 2016, published 2023)

Columns and labels:
[1] = molecular target: T1, isolated recombinant JAK1 kinase domain (Homo sapiens, UniProt P23458); assay: JAK enzyme assay, JAK1 kinase domain (Caliper LabChip); format: biochemical; details: 1.5 nM JAK1, ATP 25 μM, Morrison tight binding model
T1 construct: isolated recombinant JAK1 and JAK2 kinase domain
Procedure, shortened: (§1)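 Recombinant kinase domains phosphorylated a 5-carboxyfluorescein-labelled JAK3-derived peptide for 30 min at 22 °C, and the reaction was stopped with EDTA (50 mM final). Product fraction was measured by Caliper LabChip mobility shift. Ki came from Morrison tight-binding fits corrected for ATP competition (Ki=Ki,app/(1+[ATP]/Km,app)).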

[2] = molecular target: T2, isolated recombinant JAK2 kinase domain (Homo sapiens, UniProt O60674); assay: JAK enzyme assay, JAK2 kinase domain (Caliper LabChip); format: biochemical; details: 0.2 nM JAK2, ATP 25 μM, Morrison tight binding model
T2 construct: isolated recombinant JAK1 and JAK2 kinase domain
Procedure, shortened: as §1

[3] = system: JAK1-dependent STAT6 phosphorylation downstream of IL-13 stimulation in BEAS-2B cells; assay: JAK1 pathway assay in cell lines: IL-13 p-STAT6 BEAS-2B; format: cell-based; details: BEAS-2B human bronchial epithelial cells, 1 hr compound, IL-13 15 min, MSD readout
Procedure, shortened: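 BEAS-2B cells plated a day ahead in complete growth medium; compounds added 1 hr at 37 °C (0.2% DMSO final), then IL-13 at lot-specific EC90 for 15 min at 37 °C. Phospho-STAT6 in lysates measured by MSD; EC50 is 50% inhibition relative to DMSO control.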

T1 sequence (P23458 875-1153 limits assumed): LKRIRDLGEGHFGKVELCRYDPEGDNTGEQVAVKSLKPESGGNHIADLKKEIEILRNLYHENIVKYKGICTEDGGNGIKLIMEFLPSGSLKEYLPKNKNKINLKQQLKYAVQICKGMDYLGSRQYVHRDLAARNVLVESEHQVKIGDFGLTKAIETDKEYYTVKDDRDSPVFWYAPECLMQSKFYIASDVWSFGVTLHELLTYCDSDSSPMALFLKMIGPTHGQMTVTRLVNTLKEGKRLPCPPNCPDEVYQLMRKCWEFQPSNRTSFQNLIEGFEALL
T2 sequence (O60674 849-1124 limits assumed): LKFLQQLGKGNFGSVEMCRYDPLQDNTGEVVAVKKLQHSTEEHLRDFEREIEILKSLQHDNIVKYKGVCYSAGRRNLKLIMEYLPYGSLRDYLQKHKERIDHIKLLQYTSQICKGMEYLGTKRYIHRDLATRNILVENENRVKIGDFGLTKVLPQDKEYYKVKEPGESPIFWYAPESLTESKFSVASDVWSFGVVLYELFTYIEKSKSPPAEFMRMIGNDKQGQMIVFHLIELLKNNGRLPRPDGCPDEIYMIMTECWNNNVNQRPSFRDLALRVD

| SMILES | Ki [1] [nM] | Ki [2] [nM] | EC50 [3] [nM] |
| --- | --- | --- | --- |
| CCc1cnn(C2(CC#N)CN(c3cccn4nc(Nc5cnn(CC(=O)N6CCC(N(C)CC(C)(C)C#N)CC6)c5)nc34)C2)c1 [Example 52, 3-[[1-[2-[4-[[8-[3-(cyanomethyl)-3-(4-ethylpyrazol-1-yl)azetidin-1-yl]-[1,2,4]triazolo[1,5-a]pyridin-2-yl]amino]pyrazol-1-yl]acetyl]-4-piperidyl]-methyl-amino]-2,2-dimethyl-propanenitrile] | 0.2 | 0.5 | 13 |
| CCc1cnn(C2(CC#N)CN(c3cccn4nc(Nc5cnn(CC(=O)N6CCC(CN7CCOCC7)CC6)c5)nc34)C2)c1 [Example 53, 2-[3-(4-ethylpyrazol-1-yl)-1-[2-[[1-[2-[4-(morpholinomethyl)-1-piperidyl]-2-oxo-ethyl]pyrazol-4-yl]amino]-[1,2,4]triazolo[1,5-a]pyridin-8-yl]azetidin-3-yl]acetonitrile] | 0.9 | 0.6 | 31 |
| CCc1cnn(C2(C(C)C#N)CN(c3cccn4nc(Nc5cnn(CC(=O)N6CCN(C)CC6)c5)nc34)C2)c1 (stereo not drawn) [Example 54, 2-[3-(4-ethylpyrazol-1-yl)-1-[2-[[1-[2-(4-methylpiperazin-1-yl)-2-oxo-ethyl]pyrazol-4-yl]amino]-[1,2,4]triazolo[1,5-a]pyridin-8-yl]azetidin-3-yl]propanenitrile] | 1 | 2.8 | 231 |
| CN1CCN(C(=O)Cn2cc(Nc3nc4c(N5CC(CC#N)(n6cc(C7CCCCC7)cn6)C5)cccn4n3)cn2)CC1 [Example 55] | 1 | 5.7 | 137 |
| CC(C)c1cnn(C2(CC#N)CN(c3cccn4nc(Nc5cnn(CC(=O)N6CCN(C)CC6)c5)nc34)C2)c1 [Example 56, formic acid;2-[3-(4-isopropyipyrazol-1-yl)-1-[2-[[1-[2-(4-methylpiperazin-1-yl)-2-oxo-ethyl]pyrazol-4-yl]amino]-[1,2,4]triazolo[1,5-a]pyridin-8-yl]azetidin-3-yl]acetonitrile] | 2.3 | 10.5 | 319 |
| CCc1cnn(C2(CC#N)CN(c3cccn4nc(Nc5ccc6c(c5)CCN(C5CCOCC5)C6)nc34)C2)c1 [Example 57, 2-[3-(4-ethylpyrazol-1-yl)-1-[2-[(2-tetrahydropyran-4-yl-3,4-dihydro-1H-isoquinolin-6-yl)amino]-[1,2,4]triazolo[1,5-a]pyridin-8-yl]azetidin-3-yl]acetonitrile] | 0.3 | 1.3 | 12 |
| CCc1cnn(C2(CC#N)CN(c3cccn4nc(Nc5cnn(CC(=O)N6CCN(CCNC(=O)CC78CC9CC(CC(C9)C7)C8)CC6)c5)nc34)C2)c1 [Example 58, 2-(l-adamantyl)-N-[2-[4-[2-[4-[[8-[3-(cyanomethyl)-3-(4-ethylpyrazol-1-yl)azetidin-1-yl]-[1,2,4]triazolo[1,5-a]pyridin-2-yl]amino]pyrazol-1-yl]acetyl]piperazin-1-yl]ethyl]acetamide] | 0.4 | 0.3 | 13 |
| CN1CCN(C(=O)Cn2cc(Nc3nc4c(N5CC(CC#N)(n6cc(CCc7ccccc7)cn6)C5)cccn4n3)cn2)CC1 [Example 59, 2-[1-[2-[[1-[2-(4-methylpiperazin-1-yl)-2-oxo-ethyl]pyrazol-4-yl]amino]-[1,2,4]triazolo[1,5-a]pyridin-8-yl]-3-[4-(2-phenylethyl)pyrazol-1-yl]azetidin-3-yl]acetonitrile] | 0.2 | 0.2 | 8 |
| CCc1ccc(C2(CC#N)CN(c3cccn4nc(Nc5cnn(CC(=O)N6CCN(C)CC6)c5)nc34)C2)cc1 [Example 60, 2-[3-(4-ethylphenyl)-1-[2-[[1-[2-(4-methylpiperazin-1-yl)-2-oxo-ethyl]pyrazol-4-yl]amino]-[1,2,4]triazolo[1,5-a]pyridin-8-yl]azetidin-3-yl]acetonitrile] | 0.4 | 2.9 | 19 |
| Cc1ccccc1-c1cnn(C2(CC#N)CN(c3cccn4nc(Nc5cnn(CC(=O)N6CCN(C)CC6)c5)nc34)C2)c1 [Example 63] | 0.2 | 0.2 | 13 |
| CCc1cnn(C2(CC#N)CN(c3cccn4nc(Nc5ccc(C(=O)NCc6ccc(C)nc6)cc5)nc34)C2)c1 [Example 64, 4-[[8-[3-(cyanomethyl)-3-(4-ethylpyrazol-1-yl)azetidin-1-yl]-[1,2,4]triazolo[1,5-a]pyridin-2-yl]amino]-N-[(6-methyl-3-pyridyl)methyl]benzamide] | 0.3 | 0.2 | 15 |
| CCc1cnn(C2(CC#N)CN(c3cccn4nc(Nc5ccc(C(=O)N6CC(C(=O)N7CCN(C)CC7)C6)cc5)nc34)C2)c1 [Example 65, 2-[3-(4-ethylpyrazol-1-yl)-1-[2-[4-[3-(4-methylpiperazine-1-carbonyl)azetidine-1-carbonyl]anilino]-[1,2,4]triazolo[1,5-a]pyridin-8-yl]azetidin-3-yl]acetonitrile] | 0.5 | 1.3 | 86 |
| CCc1cnn(C2(CC#N)CN(c3cccn4nc(Nc5ccc(C(=O)NCCN6CCOCC6)cc5)nc34)C2)c1 [Example 66, 4-[[8-[3-(cyanomethyl)-3-(4-ethylpyrazol-1-yl)azetidin-1-yl]-[1,2,4]triazolo[1,5-a]pyridin-2-yl]amino]-N-(2-morpholinoethyl)benzamide] | 0.3 | 0.5 | 31 |
| CCc1cnn(C2(CC#N)CN(c3cccn4nc(Nc5ccc(C(=O)NCCCN6CCOCC6)cc5)nc34)C2)c1 [Example 67, 4-[[8-[3-(cyanomethyl)-3-(4-ethylpyrazol-1-yl)azetidin-1-yl]-[1,2,4]triazolo[1,5-a]pyridin-2-yl]amino]-N-(3-morpholinopropyl)benzamide] | 0.5 | 1.1 | 167 |
| CCc1cnn(C2(CC#N)CN(c3cccn4nc(Nc5cnn(CC(=O)N6CCN(CCCC#N)CC6)c5)nc34)C2)c1 [Example 68, 4-[4-[2-[4-[[8-[3-(cyanomethyl)-3-(4-ethylpyrazol-1-yl)azetidin-1-yl]-[1,2,4]triazolo[1,5-a]pyridin-2-yl]amino]pyrazol-1-yl]acetyl]piperazin-1-yl]butanenitrile] | 0.3 | 0.5 | 14 |
| N#CCC1(c2cccc(Cl)c2)CN(c2cccn3nc(Nc4cnn(CC(=O)N5CCN(C6COC6)CC5)c4)nc23)C1 [Example 69, 2-[3-(3-chlorophenyl)-1-[2-[[1-[2-[4-(oxetan-3-yl)piperazin-1-yl]-2-oxo-ethyl]pyrazol-4-yl]amino]-[1,2,4]triazolo[1,5-a]pyridin-8-yl]azetidin-3-yl]acetonitrile] | 0.3 | 0.5 | 21 |
| CN1CCN(C2CCN(C(=O)Cn3cc(Nc4nc5c(N6CC(CC#N)(c7cccc(Cl)c7)C6)cccn5n4)cn3)CC2)CC1 [Example 70, 2-[3-(3-chlorophenyl)-1-[2-[[1-[2-[4-(4-methylpiperazin-1-yl)-1-piperidyl]-2-oxo-ethyl]pyrazol-4-yl]amino]-[1,2,4]triazolo[1,5-a]pyridin-8-yl]azetidin-3-yl]acetonitrile] | 0.2 | 0.3 | 10 |
| CCc1cccc(C2(CC#N)CN(c3cccn4nc(Nc5cnn(CC(=O)N6CCN(C)CC6)c5)nc34)C2)c1 [Example 71, 2-[3-(3-ethylphenyl)-1-[2-[[1-[2-(4-methylpiperazin-1-yl)-2-oxo-ethyl]pyrazol-4-yl]amino]-[1,2,4]triazolo[1,5-a]pyridin-8-yl]azetidin-3-yl]acetonitrile] | 0.3 | 0.3 | 26 |
| N#CCC1(c2cccc(Cl)c2)CN(c2cccn3nc(Nc4cnn(CC(=O)N5CCC(N6CCOCC6)CC5)c4)nc23)C1 [Example 72, 2-[3-(3-chlorophenyl)-1-[2-[[1-[2-(4-morpholino-1-piperidyl)-2-oxo-ethyl]pyrazol-4-yl]amino]-[1,2,4]triazolo[1,5-a]pyridin-8-yl]azetidin-3-yl]acetonitrile] | 0.6 | 0.6 | 24 |
| CCc1cnn(C2(CC#N)CN(c3cccn4nc(Nc5ccc(CC(=O)N6CCN(C)CC6)cc5)nc34)C2)c1 [Example 73, 2-[3-(4-ethylpyrazol-1-yl)-1-[2-[4-[2-(4-methylpiperazin-1-yl)-2-oxo-ethyl]anilino]-[1,2,4]triazolo[1,5-a]pyridin-8-yl]azetidin-3-yl]acetonitrile] | 0.7 | 0.3 | 18 |
| CCc1cnn(C2(CC#N)CN(c3cccn4nc(Nc5ccc(CC(=O)N6CCN(C)CC6)nc5)nc34)C2)c1 [Example 74] | 0.4 | 1.8 | 20 |
| CCc1cnn(C2(CC#N)CN(c3cccn4nc(Nc5cccc(C(=O)N6CCN(C)CC6)c5)nc34)C2)c1 [Example 75, 2-[3-(4-ethylpyrazol-1-yl)-1-[2-[3-(4-methylpiperazine-1-carbonyl)anilino]-[1,2,4]triazolo[1,5-a]pyridin-8-yl]azetidin-3-yl]acetonitrile] | 0.4 | 2 | 26 |
| CN1CCN(C(=O)Cn2cc(Nc3nc4c(N5CC(CC#N)(CCc6ccccc6)C5)cccn4n3)cn2)CC1 [Example 76] | 0.3 | 0.9 | 16 |
